Patent US20230021483A1, “[…] […] METHOD AND CLASSIFICATION OF PHARMACEUTICAL COMPONENTS BY USING TRANSCRIPTOMES” (National Institutes of Biomedical Innovation, Health and …, priority 2016, published 2023)

How the values were obtained:
LV, SP and LNs = experiment: Whole organ transcriptome across organs (adjuvant gene space): gene responses and adjuvant grouping; assay type: in vivo, C57BL/6 mice
[1] = tested on: adjuvant-associated biological themes in LV, SP, LN
Method in brief: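 Per-mouse whole-organ transcriptomes; genes with eij/ei(c)>2.0 tested for theme enrichment via TargetMine (GO, KEGG, Reactome, others), Fisher's exact test, Holm-Bonferroni correction. Themes shared by all three mice kept at p<0.05, using the smallest p. Score per adjuvant-associated term = Σ−log(p) of matching themes.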

For Monophosphoryl lipid A [MPLA], the “consistency of gene responses among individual mice and organs” value (LV, SP and LNs; 6 h, FIG. 5) was “varying gene responses among the individual mice and organs”, the “distribution/strength of gene responses between local LNs and systemic organs (LV, SP)” value (LV, SP and LNs; 6 h after i.d. (local) administration) was “acted on local LNs but not in the systemic remote organs” and the “IFN alpha, GO annotation line 1 of 5” value ([1]; LV, ID) was 0. The “IFN alpha, GO annotation line 2 of 5” value ([1]; LV, ID) was 0, the “IFN alpha: cellular response to interferon-alpha” value ([1]; LV, ID) was 0 and the “IFN alpha: positive regulation of interferon-alpha production” value ([1]; LV, ID) was 0. For the same substance, the “IFN alpha: regulation of interferon-alpha production” value ([1]; LV, ID) was 0, the “IFN beta: cellular response to interferon-beta” value ([1]; LV, ID) was 0 and the “IFN beta: interferon-beta production” value ([1]; LV, ID) was 0. The “IFN beta: positive regulation of interferon-beta production” value ([1]; LV, ID) was 0, the “IFN beta: regulation of interferon-beta production” value ([1]; LV, ID) was 0 and the “IFN beta: response to interferon-beta” value ([1]; LV, ID) was 0. The “IFN gamma: cellular response to interferon-gamma” value ([1]; LV, ID) was 0, the “IFN gamma: interferon-gamma production” value ([1]; LV, ID) was 0 and the “IFN gamma: regulation of interferon-gamma production” value ([1]; LV, ID) was 0. The “IFN gamma: response to interferon-gamma” value ([1]; LV, ID) was 0, the “NF-kappa B signaling pathway, GO annotation line 1 of 4” value ([1]; LV, ID) was 0 and the “NF-kappa B signaling pathway, GO annotation line 2 of 4” value ([1]; LV, ID) was 0. For the same substance, the “NF-kappa B signaling pathway, GO annotation line 3 of 4” value ([1]; LV, ID) was 0, the “NF-kappa B signaling pathway, GO annotation line 4 of 4” value ([1]; LV, ID) was 0 and the TNF signaling pathway ([1]; LV, ID) was 3.93. For the same substance, the “adaptive immune response, GO annotation line 1 of 5” value ([1]; LV, ID) was 0, the “adaptive immune response, GO annotation line 2 of 5” value ([1]; LV, ID) was 0 and the “adaptive immune response, GO annotation line 3 of 5” value ([1]; LV, ID) was 0. For the same substance, the “adaptive immune response, GO annotation line 4 of 5” value ([1]; LV, ID) was 0, the “adaptive immune response, GO annotation line 5 of 5” value ([1]; LV, ID) was 0 and the “apoptosis, GO annotation line 1 of 8” value ([1]; LV, ID) was 0. For the same substance, the “apoptosis, GO annotation line 2 of 8” value ([1]; LV, ID) was 0, the “apoptosis, GO annotation line 3 of 8” value ([1]; LV, ID) was 0 and the “apoptosis, GO annotation line 4 of 8” value ([1]; LV, ID) was 0. The “apoptosis, GO annotation line 5 of 8” value ([1]; LV, ID) was 0, the “apoptosis, GO annotation line 6 of 8” value ([1]; LV, ID) was 0 and the “apoptosis, GO annotation line 7 of 8” value ([1]; LV, ID) was 0. The “apoptosis, GO annotation line 8 of 8” value ([1]; LV, ID) was 0, the “cell death, GO annotation line 1 of 9” value ([1]; LV, ID) was 0 and the “cell death, GO annotation line 2 of 9” value ([1]; LV, ID) was 0. The “cell death, GO annotation line 3 of 9” value ([1]; LV, ID) was 0, the “cell death, GO annotation line 4 of 9” value ([1]; LV, ID) was 0 and the “cell death, GO annotation line 5 of 9” value ([1]; LV, ID) was 0. The “cell death, GO annotation line 6 of 9” value ([1]; LV, ID) was 0, the “cell death, GO annotation line 7 of 9” value ([1]; LV, ID) was 0 and the “cell death, GO annotation line 8 of 9” value ([1]; LV, ID) was 0. For the same substance, the “cell death, GO annotation line 9 of 9” value ([1]; LV, ID) was 0, the “chemokine, GO annotation line 1 of 4” value ([1]; LV, ID) was 0 and the “chemokine, GO annotation line 2 of 4” value ([1]; LV, ID) was 0. For the same substance, the “chemokine, GO annotation line 3 of 4” value ([1]; LV, ID) was 0, the “chemokine, GO annotation line 4 of 4” value ([1]; LV, ID) was 0 and the “chemotaxis, GO annotation line 1 of 11” value ([1]; LV, ID) was 3.38. For the same substance, the “chemotaxis, GO annotation line 2 of 11” value ([1]; LV, ID) was 0, the “chemotaxis, GO annotation line 3 of 11” value ([1]; LV, ID) was 0 and the “chemotaxis, GO annotation line 4 of 11” value ([1]; LV, ID) was 0. For the same substance, the “chemotaxis, GO annotation line 5 of 11” value ([1]; LV, ID) was 0, the “chemotaxis, GO annotation line 6 of 11” value ([1]; LV, ID) was 0 and the “chemotaxis, GO annotation line 7 of 11” value ([1]; LV, ID) was 0. For the same substance, the “chemotaxis, GO annotation line 8 of 11” value ([1]; LV, ID) was 0, the “chemotaxis, GO annotation line 9 of 11” value ([1]; LV, ID) was 0 and the “chemotaxis, GO annotation line 10 of 11” value ([1]; LV, ID) was 0. The “chemotaxis, GO annotation line 11 of 11” value ([1]; LV, ID) was 0, the “cytokine, GO annotation line 1 of 17” value ([1]; LV, ID) was 0 and the “cytokine, GO annotation line 2 of 17” value ([1]; LV, ID) was 0. The “cytokine, GO annotation line 3 of 17” value ([1]; LV, ID) was 0, the “cytokine, GO annotation line 4 of 17” value ([1]; LV, ID) was 0 and the “cytokine, GO annotation line 5 of 17” value ([1]; LV, ID) was 0. For the same substance, the “cytokine, GO annotation line 6 of 17” value ([1]; LV, ID) was 0, the “cytokine, GO annotation line 7 of 17” value ([1]; LV, ID) was 0 and the “cytokine, GO annotation line 8 of 17” value ([1]; LV, ID) was 0. For the same substance, the “cytokine, GO annotation line 9 of 17” value ([1]; LV, ID) was 0, the “cytokine, GO annotation line 10 of 17” value ([1]; LV, ID) was 0 and the “cytokine, GO annotation line 11 of 17” value ([1]; LV, ID) was 0. For the same substance, the “cytokine, GO annotation line 12 of 17” value ([1]; LV, ID) was 0, the “cytokine, GO annotation line 13 of 17” value ([1]; LV, ID) was 0 and the “cytokine, GO annotation line 14 of 17” value ([1]; LV, ID) was 0. For the same substance, the “cytokine, GO annotation line 15 of 17” value ([1]; LV, ID) was 0, the “cytokine, GO annotation line 16 of 17” value ([1]; LV, ID) was 0 and the “cytokine, GO annotation line 17 of 17” value ([1]; LV, ID) was 0. The “defense response, GO annotation line 1 of 11” value ([1]; LV, ID) was 0, the “defense response, GO annotation line 2 of 11” value ([1]; LV, ID) was 0 and the “defense response, GO annotation line 3 of 11” value ([1]; LV, ID) was 0. For the same substance, the “defense response, GO annotation line 4 of 11” value ([1]; LV, ID) was 0, the “defense response, GO annotation line 5 of 11” value ([1]; LV, ID) was 0 and the “defense response, GO annotation line 6 of 11” value ([1]; LV, ID) was 0. For the same substance, the “defense response, GO annotation line 7 of 11” value ([1]; LV, ID) was 0, the “defense response, GO annotation line 8 of 11” value ([1]; LV, ID) was 0 and the “defense response, GO annotation line 9 of 11” value ([1]; LV, ID) was 0. For the same substance, the “defense response, GO annotation line 10 of 11” value ([1]; LV, ID) was 0, the “defense response, GO annotation line 11 of 11” value ([1]; LV, ID) was 0 and the “immune response, GO annotation line 1 of 8” value ([1]; LV, ID) was 0. The “immune response, GO annotation line 2 of 8” value ([1]; LV, ID) was 0, the “immune response, GO annotation line 3 of 8” value ([1]; LV, ID) was 0 and the “immune response, GO annotation line 4 of 8” value ([1]; LV, ID) was 0. The “immune response, GO annotation line 5 of 8” value ([1]; LV, ID) was 0, the “immune response, GO annotation line 6 of 8” value ([1]; LV, ID) was 0 and the “immune response, GO annotation line 7 of 8” value ([1]; LV, ID) was 0. The “immune response, GO annotation line 8 of 8” value ([1]; LV, ID) was 0, the “inflammatory response, GO annotation line 1 of 5” value ([1]; LV, ID) was 0 and the “inflammatory response, GO annotation line 2 of 5” value ([1]; LV, ID) was 0. The “inflammatory response, GO annotation line 3 of 5” value ([1]; LV, ID) was 0, the “inflammatory response, GO annotation line 4 of 5” value ([1]; LV, ID) was 0 and the “inflammatory response, GO annotation line 5 of 5” value ([1]; LV, ID) was 0. For the same substance, the “innate immune response, GO annotation line 1 of 6” value ([1]; LV, ID) was 0, the “innate immune response, GO annotation line 2 of 6” value ([1]; LV, ID) was 0 and the “innate immune response, GO annotation line 3 of 6” value ([1]; LV, ID) was 0. For the same substance, the “innate immune response, GO annotation line 4 of 6” value ([1]; LV, ID) was 0, the “innate immune response, GO annotation line 5 of 6” value ([1]; LV, ID) was 0 and the “innate immune response, GO annotation line 6 of 6” value ([1]; LV, ID) was 0. For the same substance, the “interleukin-6: interleukin-6 production” value ([1]; LV, ID) was 0, the “interleukin-6: positive regulation of interleukin-6 production” value ([1]; LV, ID) was 0 and the “interleukin-6: regulation of interleukin-6 production” value ([1]; LV, ID) was 0. For the same substance, the “interleukin-12: interleukin-12 production” value ([1]; LV, ID) was 0, the “interleukin-12: positive regulation of interleukin-12 production” value ([1]; LV, ID) was 0 and the “interleukin-12: regulation of interleukin-12 production” value ([1]; LV, ID) was 0. The “migration, GO annotation line 1 of 10” value ([1]; LV, ID) was 0, the “migration, GO annotation line 2 of 10” value ([1]; LV, ID) was 0 and the “migration, GO annotation line 3 of 10” value ([1]; LV, ID) was 0. For the same substance, the “migration, GO annotation line 4 of 10” value ([1]; LV, ID) was 0, the “migration, GO annotation line 5 of 10” value ([1]; LV, ID) was 0 and the “migration, GO annotation line 6 of 10” value ([1]; LV, ID) was 0. The “migration, GO annotation line 7 of 10” value ([1]; LV, ID) was 0, the “migration, GO annotation line 8 of 10” value ([1]; LV, ID) was 0 and the “migration, GO annotation line 9 of 10” value ([1]; LV, ID) was 0. The “migration, GO annotation line 10 of 10” value ([1]; LV, ID) was 0, the “stress, GO annotation line 1 of 3” value ([1]; LV, ID) was 0 and the “stress, GO annotation line 2 of 3” value ([1]; LV, ID) was 0. The “stress, GO annotation line 3 of 3” value ([1]; LV, ID) was 0, the “wounding, GO annotation line 1 of 3” value ([1]; LV, ID) was 0 and the “wounding, GO annotation line 2 of 3” value ([1]; LV, ID) was 0. The “wounding, GO annotation line 3 of 3” value ([1]; LV, ID) was 0 and the “systemic organ (LV and SP) responses after i.d. local administration” value ([1]; i.d., fold change >2) was “limited responses in LV and SP”.
